The target of this test is T1, wild-type K-Ras protein (Homo sapiens, UniProt P01116).
T1 construct: expressed in transfected cells; host or cells: HeLa cells, transient transfection
Nature of the test: Degradation (knockdown) of forcibly expressed wild-type K-Ras protein in HeLa cells, FACS analysis. In kind it is cell-based. Here is the method:
A plasmid expressing a wild-type K-Ras protein (K-Ras-WT) was prepared using a plasmid (pMIR-DsRed-IRES-ecDHFR-HA-GFP) expressing an ecDHFR protein by RF cloning. The full-length cDNA clone (Accession No. AK292510) of a human K-ras gene was purchased from Independent Administrative Institution, the National Institute of Technology and Evaluation. PCR amplification was performed using KOD-Plus-Neo (TOYOBO CO., LTD) as a PCR enzyme.
The plasmid was introduced into HeLa cells to transiently overexpress a wild-type K-Ras protein (specifically, a fusion protein of a wild-type K-Ras protein and GFP via a HA tag) or a DsRed protein for comparison in the cells.
ScreenFect™A (Wako Pure Chemical Industries, Ltd.) as a transfection reagent was used to introduce the plasmid into HeLa cells by a routine procedure. The HeLa cells into which the plasmid had been introduced were seeded in a 24-well plate at a cell density of 4×10^4 cells/well, and then cultured under conditions of 37° C. and 5 vol % CO2 for 40 hours. […]
A BD FACSCanto™ II (BD Biosciences) was used for flow cytometry, and the expression levels of GFP and DsRed protein in the cells were quantified. […] The GFP/DsRed ratio per cell was computed using an analysis software FlowJo™ (TOMY Digital Biology Co., Ltd.), and degradation (knockdown) of the wild-type K-Ras protein by TUS-007 was determined from a shift in a graph.
Background: Flow cytometry measures light scatter and fluorescence of single cells or particles in a stream.

T1 sequence (P01116 1-188 isoform P01116-2): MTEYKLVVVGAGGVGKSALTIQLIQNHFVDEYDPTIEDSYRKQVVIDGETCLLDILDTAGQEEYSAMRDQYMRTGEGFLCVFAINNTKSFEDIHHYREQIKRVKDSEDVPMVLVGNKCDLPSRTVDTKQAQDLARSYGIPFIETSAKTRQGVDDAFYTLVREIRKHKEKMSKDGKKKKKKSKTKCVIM

With `CC[C@@H](C)[C@H](NC(=O)CCCCCCNC(=O)[C@H](CC(C)C)NC(=O)CNC(=O)c1cc(Cl)ccc1Cl)C(=O)Nc1ccc2[nH]c(Cc3c[nH]c4ccccc34)nc2c1` [TUS-007], the “degradation (knockdown) of wild-type K-Ras protein (shift of GFP/DsRed ratio graph)” value (24 hours after addition, vs control (DMSO)) is recorded as “degradation of the wild-type K-Ras protein was induced”. The “degradation of wild-type K-Ras protein when MLN2238 is added together” value (both TUS-007 and MLN2238 added, compared with TUS-007 alone) was “degradation of the wild-type K-Ras protein was inhibited”.

Source of the values: patent publication US20190369111A1, “MOLECULAR KINETICS EVALUATION METHOD AND SCREENING METHOD” (Tokyo University of Science Foundation, priority 2016, published 2019).
